Like-named read-outs stand apart in the source and are kept apart here.
Experiments:
[1] = target: T1, fusion protein from the PR-ligand-binding domain and a Gal4-transactivation domain (Homo sapiens, UniProt P06401); experiment: Progestational action by transactivation test (CHO K1 reporter cells); format: cell-based; details: for Emax: read-out: Progesterone receptor Agonism efficacy
T1 construct: expressed in transfected cells; host or cells: CHO K1 cells, stably transfected
Description: 4. Determination of Progestational Action by Means of Transactivation Tests:
The culture medium used for culture of the cells used for the assay was DMEM (Dulbecco's Modified Eagle Medium: […] glucose; PAA, #E15-009) with 10% FCS (Biochrom, S0115, batch #615B), 4 mM L-glutamine, 1% penicillin/streptomycin, 1 mg/ml G418 and 0.5 μg/ml puromycin.
Reporter cell lines (CHO K1 cells stably transfected with a fusion protein from the PR-ligand-binding domain and a Gal4-transactivation domain and a reporter construct, which contained luciferase under the control of a Gal4-responsive promoter) were seeded at a density of 4×10^4 cells per well in white, opaque tissue culture plates each with 96 wells (PerkinElmer, #P12-106-017) and kept in culture medium with 3% DCC-FCS (serum treated with activated charcoal to remove interfering components contained in the serum). The test compounds were added eight hours later, and the cells were incubated with the compounds for 16 hours. The tests were carried out in triplicate. At the end of incubation the medium containing the effector was removed and replaced with lysis buffer. After luciferase assay substrate (Promega, #E1501) had been added, the 96-well plates were then put in a microplate luminometer (Pherastar, BMG Labtech), and the luminescence was measured. The IC50 values were evaluated using software for calculating dose-effect relations.

androgen receptor = target: T2, androgen receptor (Homo sapiens, UniProt P10275); experiment: Androgen receptor binding test; parameters: expressed in transfected cells
T2 sequence (P10275 1-920): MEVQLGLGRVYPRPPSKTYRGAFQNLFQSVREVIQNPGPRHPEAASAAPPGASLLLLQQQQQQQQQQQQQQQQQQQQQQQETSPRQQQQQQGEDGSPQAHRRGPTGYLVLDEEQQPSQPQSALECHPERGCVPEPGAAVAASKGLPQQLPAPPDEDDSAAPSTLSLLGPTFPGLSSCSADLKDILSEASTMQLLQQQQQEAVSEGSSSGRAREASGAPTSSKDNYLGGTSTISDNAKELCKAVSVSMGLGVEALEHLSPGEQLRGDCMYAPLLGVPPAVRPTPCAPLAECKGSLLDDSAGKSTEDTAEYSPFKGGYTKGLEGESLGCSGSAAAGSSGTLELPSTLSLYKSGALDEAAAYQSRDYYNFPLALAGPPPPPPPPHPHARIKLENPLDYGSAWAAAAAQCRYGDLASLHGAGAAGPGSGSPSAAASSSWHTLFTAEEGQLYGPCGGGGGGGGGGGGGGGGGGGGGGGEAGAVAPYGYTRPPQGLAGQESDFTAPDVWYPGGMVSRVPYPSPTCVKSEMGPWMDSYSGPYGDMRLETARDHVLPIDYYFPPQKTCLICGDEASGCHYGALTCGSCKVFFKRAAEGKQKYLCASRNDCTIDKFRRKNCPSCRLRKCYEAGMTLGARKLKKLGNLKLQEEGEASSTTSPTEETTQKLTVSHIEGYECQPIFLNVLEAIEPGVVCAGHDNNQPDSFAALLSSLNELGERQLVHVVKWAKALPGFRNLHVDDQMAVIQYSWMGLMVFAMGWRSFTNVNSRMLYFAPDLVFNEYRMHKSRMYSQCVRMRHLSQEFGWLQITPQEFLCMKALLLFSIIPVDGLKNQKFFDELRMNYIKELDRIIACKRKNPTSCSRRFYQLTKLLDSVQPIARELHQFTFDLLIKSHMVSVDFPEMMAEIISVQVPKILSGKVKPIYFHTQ
Description: Using cytosol from progesterone receptor-expressing insect cells (Hi5), competitive binding to the progesterone receptor was determined from the ability to displace ^3H-progesterone as reference substance from the receptor.
3. Androgen Receptor Binding Test: […]

[2] = CHO K1 reporter cells, 16 hours incubation
[3] = reference substance 3H-testosterone, cytosol from AR-expressing insect cells (Hi5), read-out: Androgen receptor IC50

T1 sequence (P06401 679-913 limits assumed): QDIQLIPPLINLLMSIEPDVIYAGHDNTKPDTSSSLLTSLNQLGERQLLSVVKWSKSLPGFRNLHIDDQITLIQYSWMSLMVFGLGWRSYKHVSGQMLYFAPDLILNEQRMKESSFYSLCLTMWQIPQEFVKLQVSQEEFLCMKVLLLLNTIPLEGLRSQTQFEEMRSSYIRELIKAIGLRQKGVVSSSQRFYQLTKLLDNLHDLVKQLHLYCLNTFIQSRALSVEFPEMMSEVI
T1 sequence (P04386 1-147 partner limits assumed): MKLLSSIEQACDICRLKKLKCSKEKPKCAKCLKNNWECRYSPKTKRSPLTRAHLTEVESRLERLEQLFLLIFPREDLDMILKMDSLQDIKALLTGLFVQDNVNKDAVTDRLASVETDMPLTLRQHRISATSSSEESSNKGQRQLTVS

Which results are given for C=C[C@@H]1CC2=CC(=O)CC[C@@H]2[C@H]2CC[C@@]3(CC)[C@@H]([C@@H]4C[C@@H]4[C@@]34C=CC(=O)O4)[C@@H]21 [Example 6A, 17β-Hydroxy-7α-vinyl-18-methyl-15β,16β-methylene-19-nor-17α-pregna-4,20(Z)-dien-3-one-21-carboxylic acid γ-lactone]?
EC50 [1]: 140 nM; Emax ([1]; CHO-K1, 16 h): 35.2%; IC50 (androgen receptor): 45 nM

C[C@]12CC[C@H]3[C@H]([C@@H]1[C@H]1C[C@H]1[C@@]21C=CC(=O)O1)[C@H](C1CC1)CC1=CC(=O)CC[C@@H]13 [Example 17A, 17β-Hydroxy-7α-cyclopropyl-15α,16α-methylene-19-nor-17α-pregna-4,20(Z)-dien-3-one-21-carboxylic acid γ-lactone] was tested. Which EC50 [1] did it give?
The EC50 was 970 nM.

What about the Emax ([1]; CHO-K1, 16 h) of the same compound?
The Emax was 71.8%.

What about the IC50 (androgen receptor) of the same compound?
Its IC50 is 77 nM.

For CC[C@]12CC[C@H]3[C@@H](C[C@@H](CO)C4=CC(=O)CC[C@@H]43)[C@@H]1[C@@H]1C[C@@H]1[C@@]21C=CC(=O)O1 [Example 10, 17β-Hydroxy-6β-hydroxymethylene-18-methyl-15β,16β-methylene-19-nor-17α-pregna-4,20(Z)-dien-3-one-21-carboxylic acid γ-lactone], which “Progesterone receptor Agonism EC50” value [1, 2] is on record?
Its value is “inactive”.

What about the IC50 (androgen receptor; [3]) of the same compound?
Its IC50 is 1000 nM.

C[C@@H]1CC2=CC(=O)CC[C@@H]2[C@H]2CC[C@@]3(C)[C@@H]([C@H]4C[C@H]4[C@@]34C=CC(=O)O4)[C@@H]21 [Example 14A, 17β-Hydroxy-7α-methyl-15α,16α-methylene-19-nor-17α-pregna-4,20(Z)-dien-3-one-21-carboxylic acid γ-lactone] was tested. Which EC50 [1] did it give?
The EC50 was 16 nM.

What about the Emax ([1]; CHO-K1, 16 h) of the same compound?
Its Emax is 86.3%.

What about the IC50 (androgen receptor) of the same compound?
Its IC50 is 74 nM.

Which EC50 [1] does the source give for CC[C@@H]1CC2=CC(=O)CC[C@@H]2[C@H]2CC[C@@]3(C)[C@@H]([C@H]4C[C@H]4[C@@]34C=CC(=O)O4)[C@H]12 [Example 15A, 17β-Hydroxy-7α-ethyl-15α,16α-methylene-19-nor-17α-pregna-4,20(Z)-dien-3-one-21-carboxylic acid γ-lactone] here?
Its EC50 is 92 nM.

What about the Emax ([1]; CHO-K1, 16 h) of the same compound?
Its Emax is 39.5%.

What about the IC50 (androgen receptor) of the same compound?
The IC50 was 60 nM.

Which results are given for C[C@]12CC[C@H]3[C@@H](CCC4=C(Cl)C(=O)CC[C@@H]43)[C@@H]1[C@H]1C[C@H]1[C@@]21C=CC(=O)O1 [Example 18, 4-Chloro-17β-hydroxy-15α,16α-methylene-19-nor-17α-pregna-4,20(Z)-dien-3-one-21-carboxylic acid γ-lactone]?
EC50 [1]: 810 nM; Emax ([1]; CHO-K1, 16 h): 25.7%; IC50 (androgen receptor): 140 nM

What does the source list for C[C@]12CC[C@H]3[C@@H](C=CC4=CC(=O)CC[C@@H]43)[C@@H]1[C@H]1C[C@H]1[C@@]21C=CC(=O)O1 [Example 13, 17β-Hydroxy-15α,16α-methylene-19-nor-17α-pregna-4,6,20(Z)-trien-3-one-21-carboxylic acid γ-lactone]?
EC50 ([1]; CHO K1 reporter cells, 16 hours incubation, read-out: Progesterone receptor Agonism EC50): 150 nM; Emax [1, 2]: 37.1%; IC50 (androgen receptor; [3]): 5100 nM

For CC[C@]12CC[C@H]3[C@@H](C=CC4=CC(=O)CC[C@@H]43)[C@@H]1[C@@H]1C[C@@H]1[C@@]21C=CC(=O)O1 [Example 3, 17β-Hydroxy-18-methyl-15β,16β-methylene-19-nor-17α-pregna-4,6,20(Z)-trien-3-one-21-carboxylic acid γ-lactone], which EC50 [1] is on record?
The EC50 was 1.4 nM.

What about the Emax ([1]; CHO-K1, 16 h) of the same compound?
Its Emax is 34.2%.

And the IC50 (androgen receptor)?
Its IC50 is 1300 nM.

CC[C@]12CC[C@H]3[C@@H]([C@@H]4C[C@@H]4C4=CC(=O)CC[C@@H]43)[C@@H]1[C@@H]1C[C@@H]1[C@@]21C=CC(=O)O1 [Example 2, 6α,7α;15β,16β-Bismethylene-17β-hydroxy-18-methyl-19-nor-17α-pregna-4,20(Z)-dien-3-one-21-carboxylic acid γ-lactone] was tested. Which IC50 (androgen receptor) did it give?
Its IC50 is 450 nM.

Which EC50 [1] does the source give for C[C@]12CC[C@H]3[C@@H](CCC4=C(Cl)C(=O)CC[C@@H]43)[C@@H]1[C@@H]1C[C@@H]1[C@@]21C=CC(=O)O1 [Example 27, 4-Chloro-17β-hydroxy-15β,16β-methylene-19-nor-17α-pregna-4,20(Z)-dien-3-one-21-carboxylic acid γ-lactone] here?
The EC50 was 330 nM.

What about the Emax ([1]; CHO-K1, 16 h) of the same compound?
The Emax was 49.6%.

What about the IC50 (androgen receptor) of the same compound?
The IC50 was 810 nM.

For C[C@]12CC[C@H]3[C@@H](CCC4=CC(=O)CC[C@@H]43)[C@@H]1[C@H]1C[C@H]1[C@@]21C=CC(=O)O1 [Example 12, 17β-Hydroxy-15α,16α-methylene-19-nor-17α-pregna-4,20(Z)-dien-3-one-21-carboxylic acid γ-lactone], which EC50 [1] is on record?
The EC50 was 0.4 nM.

What about the Emax ([1]; CHO-K1, 16 h) of the same compound?
Its Emax is 75.5%.

And the IC50 (androgen receptor)?
The IC50 was 200 nM.

For C[C@@H]1CC2=CC(=O)CC[C@@H]2[C@H]2CC[C@@]3(C)[C@@H]([C@@H]4C[C@@H]4[C@@]34C=CC(=O)O4)[C@@H]21 [Example 23A, 17β-Hydroxy-7α-methyl-15β,16β-methylene-19-nor-17α-pregna-4,20(2)-dien-3-one-21-carboxylic acid γ-lactone], which EC50 [1] is on record?
The EC50 was 21 nM.

What about the Emax ([1]; CHO-K1, 16 h) of the same compound?
Its Emax is 140%.

What about the IC50 (androgen receptor) of the same compound?
Its IC50 is 81 nM.

CC[C@]12CC[C@H]3[C@@H]([C@H]4C[C@H]4C4=C(Cl)C(=O)CC[C@@H]43)[C@@H]1[C@@H]1C[C@@H]1[C@@]21C=CC(=O)O1 [Example 8, 6β,7β;15β,16β-Bismethylene-4-chloro-17β-hydroxy-18-methyl-19-nor-17α-pregna-4,20(Z)-dien-3-one-21-carboxylic acid γ-lactone] was tested. Which Emax [1, 2] did it give?
Its Emax is 9.8%.

And the IC50 (androgen receptor; [3])?
Its IC50 is 4300 nM.

For CC[C@@H]1CC2=CC(=O)CC[C@@H]2[C@H]2CC[C@@]3(CC)[C@@H]([C@@H]4C[C@@H]4[C@@]34C=CC(=O)O4)[C@H]12 [Example 5A, 17β-Hydroxy-7α-ethyl-18-methyl-15β,16β-methylene-19-nor-17α-pregna-4,20(Z)-dien-3-one-21-carboxylic acid γ-lactone], which EC50 [1] is on record?
Its EC50 is 99 nM.

And the Emax ([1]; CHO-K1, 16 h)?
Its Emax is 35.7%.

What about the IC50 (androgen receptor) of the same compound?
The IC50 was 110 nM.

How did the IC50 (androgen receptor) turn out when C[C@]12CC[C@H]3[C@@H](CCC4=CC(=O)CC[C@@H]43)[C@@H]1[C@@H]1C[C@@H]1[C@@]21C=CC(=O)O1 [Example 19, 17β-Hydroxy-15β,16β-methylene-19-nor-17α-pregna-4,20(Z)-dien-3-one-21-carboxylic acid γ-lactone] was run?
Its IC50 is 52 nM.

How did the EC50 [1] turn out when CC[C@]12CC[C@H]3[C@@H](CCC4=CC(=O)CC[C@@H]43)[C@@H]1[C@@H]1C[C@@H]1[C@@]21C=CC(=O)O1 [Example 9, 17β-Hydroxy-18-methyl-15β,16β-methylene-19-nor-17α-pregna-4,20(Z) dien-3-one-21-carboxylic acid γ-lactone] was run?
The EC50 was 1.6 nM.

What about the Emax ([1]; CHO-K1, 16 h) of the same compound?
The Emax was 56%.

Which results are given for C[C@]12CC[C@H]3[C@@H](CC4(CC4)C4=CC(=O)CC[C@@H]43)[C@@H]1[C@@H]1C[C@@H]1[C@@]21C=CC(=O)O1 [Example 22, 6,6-(1,2-Ethanediyl)-17β-hydroxy-15β,16β-methylene-19-nor-17α-pregna-4,20(Z)dien-3-one-21-carboxylic acid γ-lactone]?
EC50 [1]: 1.1 nM; Emax ([1]; CHO-K1, 16 h): 126%

From US20110015162A1, “15,16-Methylene-17-hydroxy-19-nor-21-carboxylic acid-steroid Y-lactone derivative, use thereof and medicinal products containing the derivative” (Bayer Schering Pharma Aktiengesellschaft, priority 2007, published 2011)
